The text below walks through data of ChEMBL document CHEMBL5550197, “New melphalan derivatives for the treatment of retinoblastoma in combination with thermotherapy” (RSC Med Chem, 2024).

Usually IC50 stands for the concentration that gives 50% inhibition.

Experiment [1] deals with dsDNA. The experiment in a line: Binding affinity to dsDNA (unknown origin) assessed as adduct formation by measuring free dsDNA incubated for 48 hrs by ESI-MS analysis. It is filed as nucleic-acid assay. Also noted: concentration or dose not given beside the values.
In experiment [2] the test system is Y79. The experiment is described as follows: Cytotoxicity against human Y79 cells assessed as cell viability incubated for 24 hrs under 37 degreeC by PrestoBlue reagent based assay. The following applies: Y79, 24 h. Type of experiment: functional.
Experiment [3] concerns dsDNA. The experiment in a line: Binding affinity to dsDNA (unknown origin) assessed as adduct formation by measuring bound dsDNA incubated for 48 hrs by ESI-MS analysis. It is filed as nucleic-acid assay.
Experiment [4] relates to Y79. The experiment is described as follows: Potency index, ratio of melphalan IC50 to test compound IC50 for cytotoxicity against human Y79 cells assessed as cell viability preincubated for 1 hr under 42 degreeC and further incubated under 37 degreeC for 23 hrs by PrestoBlue reagent based assay. It is filed as functional. As to conditions: time 24 hrs.
The test system of experiment [5] is Y79. The experiment in a line: Potency index, ratio of melphalan IC50 to test compound IC50 for cytotoxicity against human Y79 cells assessed as cell viability incubated for 24 hrs under 37 degreeC by PrestoBlue reagent based assay. Type of experiment: functional.
Experiment [6] relates to RPMI-8226. The experiment in a line: Cytotoxicity against human RPMI-8226 cells incubated for 48 hrs by resazurin dye based assay. Type of experiment: functional, cell-based. As to conditions: RPMI-8226, 48 h. In general terms: Resazurin is reduced to fluorescent resorufin, in cell work by metabolically active cells.

Structures are written as SMILES. A value given as a limit tells only on which side of the number the result lay.

`N[C@@H](Cc1ccc(N(CCCl)CCCl)cc1)C(=O)OCCC(F)(F)C(F)(F)C(F)(F)C(F)(F)C(F)(F)C(F)(F)F`: the Activity in experiment [1] worked out at 92%.

`N[C@@H](Cc1ccc(N(CCCl)CCCl)cc1)C(=O)OCCC(F)(F)C(F)(F)C(F)(F)C(F)(F)C(F)(F)C(F)(F)C(F)(F)C(F)(F)F`: the Activity in experiment [1] is 98%. Regarding `N[C@@H](Cc1ccc(N(CCCl)CCCl)cc1)C(=O)OCCC(F)(F)C(F)(F)C(F)(F)C(F)(F)C(F)(F)C(F)(F)C(F)(F)C(F)(F)C(F)(F)C(F)(F)F`, the IC50 in experiment [2] is more than 200 µM.

Regarding `N[C@@H](Cc1ccc(N(CCCl)CCCl)cc1)C(=O)OCCC(F)(F)C(F)(F)F`, the values for the Activity in experiment [1] and in experiment [3] were 37% and 63%, respectively. As for `Cl.N[C@@H](Cc1ccc(N(CCCl)CCCl)cc1)C(=O)OCCC(F)(F)F`, the Activity in experiment [1] was 26%; in experiment [3], 74%. Besides, the “Ratio IC50” value in experiment [4] and in experiment [5] was 8 throughout. On to `N[C@@H](Cc1ccc(N(CCCl)CCCl)cc1)C(=O)O`, for which it took 8.9 µM to reach half-maximal inhibition in experiment [6] (IC50). In addition, the Activity in experiment [1] was 99%.

Consider `N[C@@H](Cc1ccc(N(CCCl)CCCl)cc1)C(=O)OCCC(F)(F)C(F)(F)C(F)(F)C(F)(F)F`, for which the Activity was 51% in experiment [1] and 49% in experiment [3].
